Results reported in patent US3991187A, “Medicinal compositions and methods of use involving phosphoric acid esters” (Aktiebolaget Leo, priority 1971, dated 1976).

Legend:
PGE1 = test: prostaglandin-stimulated glycolysis of the prepubertal ovary (lactic acid production); type: cell-based, rats
Protocol: The action of esters of the present invention on the prostaglandin-stimulated glycolysis of the prepubertal ovary is investigated. The method used has been described in detail by Perklev & Ahren (Life Sciences Part I, 10:1387, 1971). In these experiments ovaries from prepubertal rats are removed and placed in Erlenmeyer flasks containing compounds of this invention dissolved in Krebs biocarbonate buffer. After that the ovaries have been preincubated during 60 min. at 37° C in this medium, they are blotted on filter paper and then washed for 2 min. in plain buffer. The ovaries are then transferred to a new incubation medium containing prostaglandins (PG) dissolved in Krebs bicarbonate buffer and incubated at 37° C for 2 hrs with continuous shaking. The ovarian glycolysis is then determined by measuring the concentration of lactic acid in the incubation medium. When polyphloretin phosphate (PPP) is present in the preincubation medium in a concentration of 500 μg/ml, the subsequent ovarian lactic acid production produced by PGE1 is reduced to about 50% of that obtained with ovaries preincubated in plain buffer. When sodium bis(4-(3-(2,4,6-trihydroxyphenyl)propyl)phenyl)phosphate is investigated in the same experimental system, a 50% reduction of the lactate production is seen when only 50-100 μg/ml of the compound is present in the preincubation medium.

gerbil colon = test: smooth muscle stimulatory effect on the gerbil colon in vivo; design: species or system mongolian gerbils; conditions: Meriones unguiculatus, iv; infused i.v., gerbils anesthetized with pentobarbital, ascending colon; read-out: dose causing the gut to respond with a series of contractions
Protocol: This example illustrates the smooth muscle stimulatory effect of esters of this invention on the gerbil colon in vivo.
The experiments are performed with mongolian gerbils, anesthetized with pentobarbital, 50 mg/kg. The ascending colon is exposed and carefully stretched between silk thread loops and a strain-gauge transducer.
After a stable base-line has been established an ester of this invention, sodium bis (4-(3-oxo-3-(2,4,6-trihydroxyphenyl)-propyl)phenyl) phosphate is infused i.v.
In doses from 40 mg/kg this treatment causes the gut to respond with a series of contractions.

[1] = tested on: Slow Reacting Substance (SRS); test: antagonism to Slow Reacting Substance on the isolated guinea-pig ileum (Mathe & Strandberg); type: cell-based
Protocol: The antagonism to Slow Reacting Substance (SRS) is determined on the isolated guinea-pig ileum as described by Mathe & Strandberg (Acta physiol. scand. 82:460, 1971). Purified SRS is obtained from cat paws perfused with compound 48/80 (Strandberg & Uvnas: Acta physiol. scand. 82:358, 1971). Sodium bis(4-(3-oxo-3-(2,4,6-trihydroxyphenyl)propyl)phenyl) phosphate was tested in this system in several concentrations.

prostaglandins = test: quantitative assay: PG dose-response curves in the presence of inhibitor (Arunlakshana & Schild), gerbil colon; type: cell-based, Gerbils (Meriones unguiculatus); conditions: on a weight basis
From the text: (§1) Results from these experiments give an approximate idea of the PG-inhibitory potency of the compounds. When more precise information about this is desired we use a more elaborate method involving the establishment of several PG dose-response curves in the presence of various concentrations of inhibitor. The method used is essentially the same as that described by Arunlakshana & Schild (Br. J. Pharm. 14:48, 1959). Other agonists, acetylcholine,5-HT and bradykinin, are included in these experiments in order to determine the selectivity of the antagonism.
(§2) In the quantitative assay it is confirmed that sodium bis(4-(3-oxo-3-(2,4,6-trihydroxyphenyl)propyl)phenyl)phosphate has a PG inhibition potency about 10 times that of PPP on a weight basis, and also the results with sodium bis (3,5-dihydroxy-4-(3-(4-hydroxyphenyl)propionyl)phenyl)phosphate are confirmed.

bronchial smooth muscle = test: isolated perfused guinea-pig lung preparation, bronchoconstriction; type: cell-based, guinea pigs; conditions: injected via the arterial cannula; about 0.5 mg and upwards
From the text: The effects of esters of the present invention on bronchial smooth muscle have been investigated using an isolated perfused guinea-pig lung preparation according to Bhattacharya & Delaunois (Arch. Int. Pharmacodyn. 101:495, 1955). The lungs from guinea pigs weighing 300-400 g are removed, and the trachea and A. pulmonalis cannulated. The arterial cannula is connected to a perfusion fluid reservoir containing Tyrode solution buffered with 10 % Sorensen phosphate buffer. The tracheal cannula is connected with tubing to a carbogen gas supply delivering a constant amount per time unit. The perfusion pressure is measured in a side arm of the tubing with a "Mercury" transducer connected to an Ultralette UV-recorder. The compounds are injected via the arterial cannula, close to the entrance of A. pulmonalis in the lung.

[2] = tested on: acetylcholine, 5-HT and bradykinin; test: selectivity of the antagonism: other agonists on the gerbil colon; type: cell-based, Gerbils (Meriones unguiculatus); conditions: far higher concentrations than the prostaglandin-inhibitory ones
From the text: as §1, §2

[3] = tested on: prostaglandins E1, E2 F1α and F2α; test: PG-inhibitory effect on the isolated gerbil colon; type: cell-based, Gerbils (Meriones unguiculatus); conditions: relative to PPP (10-75 μg/ml)
Protocol: The PG-inhibitory effect of esters of the present invention on the gerbil colon are determined using the general technique described by Eakins, Miller & Karim (J. Pharm. Exp. Ther. 176:441, 1971). Gerbils (Meriones unguiculatus) of own breed, both sexes, weighing 50-80 g are used. The animal is stunned, colon ascendens immediately removed, and a 2-3 cm piece mounted in a 6 ml bath containing a modified de Jalon solution at 28° C and continuously oxygenated. Contractions of the organ are registered either isotonically or isometrically. When testing the inhibitory effect of a compound this is added to the bath 2 min before the addition of prostaglandin. […] Several concentrations of each antagonist are used.

O=C(CCc1ccc(OP(=O)([O-])Oc2ccc(CCC(=O)c3c(O)cc(O)cc3O)cc2)cc1)c1c(O)cc(O)cc1O.[Na+] [sodium bis(4-(3-oxo-3-(2,4,6-trihydroxyphenyl)-propyl)phenyl) phosphate]
activity as a prostaglandin inhibitor relative to PPP (PGE1): 5-10 times | IC50 (PGE1; Rattus norvegicus, preincubation 60 min at 37° C, read-out: concentration in the preincubation medium giving a 50% reduction of the lactate production): 50 to 100 µg/mL | minimal effective dose (gerbil colon): ≥ 40 mg/kg | minimal effective concentration ([1]; Cavia porcellus, concentrations as low as, read-out: concentration that inhibits contractions produced by SRS): ≥ 5 µg/mL | manner of inhibition of SRS ([1]; parallel shift of the dose-response curves, no change in maximum contraction): competitive manner | PG inhibition potency relative to PPP (prostaglandins): about 10 times | dose showing a bronchoconstricting effect (bronchial smooth muscle): ≥ 0.5 mg | influence on the contractions elicited by acetylcholine, 5-HT or bradykinin [2]: no influence | concentration for 50 per cent reduction of the PG-induced contraction, as fraction of that of PPP [3]: about one tenth
